Results: BigSolDB 2.1

COc1ccc(Cl)cc1C(=O)NCCc1ccc(S(=O)(=O)NC(=O)NC2CCCCC2)cc1
solubility (mole fraction)
Conditions | 283.15 K | 288.15 K | 293.15 K | 298.15 K | 303.15 K | 308.15 K | 313.15 K | 318.15 K | 323.15 K
in MIBK | 0.000198 | 0.000227 | 0.000276 | 0.000336 | 0.000426 | 0.000529 | 0.000655 | 0.000789 | 0.000908
in acetone | 0.000471 | 0.000568 | 0.00069 | 0.000894 | 0.00109 | 0.00134 | 0.00171 | 0.00214 | 0.00261
in acetonitrile | 5.25e-05 | 7.15e-05 | 9.85e-05 | 0.000131 | 0.000163 | 0.000225 | 0.000316 | 0.000418 | 0.000558
in ethanol | 0.000108 | 0.00015 | 0.000188 | 0.000249 | 0.000316 | 0.000412 | 0.000591 | 0.000865 | 0.00116
in ethyl acetate | 9.01e-05 | 0.000121 | 0.00015 | 0.000181 | 0.000226 | 0.00029 | 0.000375 | 0.000486 | 0.000627
in isopropanol | 7.55e-05 | 8.89e-05 | 0.000126 | 0.000162 | 0.000207 | 0.000271 | 0.000401 | 0.000619 | 0.000934
in methanol | 0.000124 | 0.000165 | 0.00021 | 0.000284 | 0.000355 | 0.000488 | 0.000695 | 0.00105 | 0.00143
in methyl acetate | 0.000127 | 0.000164 | 0.000202 | 0.000246 | 0.000296 | 0.000372 | 0.000492 | 0.000629 | 0.000769
in n-butanol | 0.000186 | 0.000223 | 0.000242 | 0.000284 | 0.000334 | 0.000445 | 0.000646 | 0.000922 | 0.00135
in n-propanol | 0.0001 | 0.000125 | 0.000163 | 0.000225 | 0.000286 | 0.000381 | 0.000538 | 0.000729 | 0.000983
in sec-butanol | 6.35e-05 | 7.97e-05 | 0.000104 | 0.000141 | 0.000184 | 0.000248 | 0.000365 | 0.000568 | 0.000887
